# In patent US11279735B2, “Cyclic peptide antibiotics” (priority 2017, dated 2022):
# *1 amine or outer side, *2 acyl side, *3 side chain or, on linkers, in order; H or OH if unused. Where a SMILES comes first, the peptide text is derived from it. [ ]: non-standard residue; d: D form. The star is where a group is joined. X2 = CCCCCC[C@@H](OC[C@@H](C)N[*:1])[C@@H](C)C(=O)[*:2]; aThr = C[C@H](O)[C@H](N)C(=O)O; NMeL = CN[C@@H](CC(C)C)C(=O)O; Chg = N[C@H](C(=O)O)C1CCCCC1; Dap = NC[C@H](N)C(=O)O; Propyl(3-NH2) = NCCC*; X11 = OC[C@H](O)C*
# Test system: Escherichia coli (E. coli) strain CFT073 ATCC 700928
# Format: cell-based
# Settings: ATCC 700928, 22 h
# Procedure, shortened: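 MICs were read after 22 h at 35 °C, with bacteria added to a final OD600 of 0.0005. Compounds were serially diluted 2-fold over ten concentrations from a top of 64, 4, 0.5 or 0.13 μg/mL (protocols 1–4). Medium was cation-adjusted Mueller Hinton II broth plus 0.002% Tween-80, following CLSI M07-A8.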
row,Compound,MIC [µM]
1,"CC[C@@H](C)[C@@H]1NC(=O)[C@H](CC(C)C)N(C)C(=O)[C@H](C)[C@@H](CCCCC(C)(C)C)OC(=O)CNC(=O)[C@H]([C@H](C)O)NC(=O)[C@H](CN)NC1=O [Example 49, (6S,9S,12S,15S,18R,19R)-9-(aminomethyl)-19-(5,5-dimethylhexyl)-6-[(1S)-1-hydroxyethyl]-15-isobutyl-16,18-dimethyl-12-[(1R)-1-methylpropyl]-1-oxa-4,7,10,13,16-pentazacyclononadecane-2,5,8,11,14,17-hexone]",3.1
2,"CCCCCCCCCC[C@H]1OC(=O)CNC(=O)[C@H]([C@H](C)O)NC(=O)[C@H](CN)NC(=O)[C@H](CCCCOC)NC(=O)[C@H](CC(C)C)N(C)C(=O)[C@@H]1C [Example 50, (6S,9S,12S,15S,18R,19R)-9-(aminomethyl)-19-decyl-6-[(1S)-1-hydroxyethyl]-15-isobutyl-12-(4-methoxybutyl)-16,18-dimethyl-1-oxa-4,7,10,13,16-pentazacyclononadecane-2,5,8,11,14,17-hexone]",25
3,"CCCCCC[C@H]1OC(=O)CNC(=O)[C@H](COCCCN)NC(=O)[C@H](CN)NC(=O)[C@H](C2CCCCC2)NC(=O)[C@H](CC(C)C)N(C)C(=O)[C@@H]1C [Example 51, (6S,9S,12S,15S,18R,19R)-9-(Aminomethyl)-6-((3-aminopropoxy)methyl)-12-cyclohexyl-19-hexyl-15-isobutyl-16,18-dimethyl-1-oxa-4,7,10,13,16-pentaazacyclononadecane-2,5,8,11,14,17-hexaone]",8.7
4,"CCCCCC[C@H]1OC(=O)CNC(=O)[C@H]([C@H](C)O)NC(=O)[C@H](CN)NC(=O)[C@H](C2CCCCC2)NC(=O)[C@H](CC(C)C)N(C)C(=O)[C@@H]1Cc1ccc(-c2ccccc2)cc1 [Example 54, (6S,9S,12S,15S,18R,19R)-18-([1,1′-Biphenyl]-4-ylmethyl)-9-(aminomethyl)-12-cyclohexyl-19-hexyl-6-((S)-1-hydroxyethyl)-15-isobutyl-16-methyl-1-oxa-4,7,10,13,16-pentaazacyclononadecane-2,5,8,11,14,17-hexaone]",8.7
5,"CCCCCC[C@H]1OC(=O)CNC(=O)[C@H]([C@H](C)O)NC(=O)[C@H](CN)NC(=O)[C@H](C2CC3(CCC3)C2)NC(=O)[C@H](CC(C)C)N(C)C(=O)[C@@H]1C [Example 55, (6S,9S,12S,15S,18R,19R)-9-(aminomethyl)-19-hexyl-6-((S)-1-hydroxyethyl)-15-isobutyl-16,18-dimethyl-12-(spiro[3.3]heptan-2-yl)-1-oxa-4,7,10,13,16-pentaazacyclononadecane-2,5,8,11,14,17-hexaone]",18
6,"CCCCCCCCCC[C@H]1OC(=O)CNC(=O)[C@H](Cc2c[nH]nn2)NC(=O)[C@H](CN)NC(=O)[C@H](C2CCCCC2)NC(=O)[C@H](CC(C)C)N(C)C(=O)[C@@H]1C [Example 56, (6S,9S,12S,15S,18R,19R)-6-((1H-1,2,3-triazol-4-yl)methyl)-9-(aminomethyl)-12-cyclohexyl-19-decyl-15-isobutyl-16,18-dimethyl-1-oxa-4,7,10,13,16-pentaazacyclononadecane-2,5,8,11,14,17-hexaone]",4.4
7,"CCCCCC[C@H]1OC[C@@H](C)NC(=O)[C@H]([C@H](C)O)NC(=O)[C@H](CN)NC(=O)[C@H](C2CCCCC2)NC(=O)[C@H](CC(C)C)N(C)C(=O)[C@@H]1C [Example 57, (3R,6S,9S,12S,15S,18R,19R)-9-(Aminomethyl)-12-cyclohexyl-19-hexyl-6-((S)-1-hydroxyethyl)-15-isobutyl-3,16,18-trimethyl-1-oxa-4,7,10,13,16-pentaazacyclononadecane-5,8,11,14,17-pentaone] (cyclo([Chg][Dap][aThr][X2][NMeL]))",2.9
8,"CCCCCC[C@H]1OC(=O)CNC(=O)[C@H](CO[C@H]2C[C@H](N)C2)NC(=O)[C@H](CN)NC(=O)[C@H](C2CCCCC2)NC(=O)[C@H](CC(C)C)N(C)C(=O)[C@@H]1C [Example 58, (6S,9S,12S,15S,18R,19R)-6-(((1r,3S)-3-Aminocyclobutoxy)methyl)-9-(aminomethyl)-12-cyclohexyl-19-hexyl-15-isobutyl-16,18-dimethyl-1-oxa-4,7,10,13,16-pentaazacyclononadecane-2,5,8,11,14,17-hexaone]",6.3
9,"CCCCCC[C@H]1OC(=O)CNC(=O)[C@H]([C@H](C)O)NC(=O)[C@H](CN)NC(=O)[C@H](C2CCCCCC2)NC(=O)[C@H](CC(C)C)N(C)C(=O)[C@@H]1C [Example 59, (6S,9S,12S,15S,18R,19R)-9-(Aminomethyl)-12-cycloheptyl-19-hexyl-6-((S)-1-hydroxyethyl)-15-isobutyl-16,18-dimethyl-1-oxa-4,7,10,13,16-pentaazacyclononadecane-2,5,8,11,14,17-hexaone]",1.1
10,"CC(C)C[C@H]1C(=O)N[C@@H](C2CCCCC2)C(=O)N[C@@H](CN)C(=O)N[C@@H]([C@H](C)O)C(=O)NCC(=O)O[C@H](CCC2CC3CCC2C3)[C@@H](C)C(=O)N1C (stereo partly drawn) [Example 60, (6S,9S,12S,15S,18R,19R)-9-(Aminomethyl)-19-(2-(bicyclo[2.2.1]heptan-2-yl)ethyl)-12-cyclohexyl-6-((S)-1-hydroxyethyl)-15-isobutyl-16,18-dimethyl-1-oxa-4,7,10,13,16-pentaazacyclononadecane-2,5,8,11,14,17-hexaone]",0.73
11,"CCCCCCC1OC(=O)CNC(=O)[C@H]([C@H](C)O)NC(=O)[C@H](CN)NC(=O)[C@H]([C@H](C)CC)NC(=O)[C@H](CC(C)C)N(C)C(=O)C1(F)F (stereo partly drawn) [Example 61, (6S,9S,12S,15S)-9-(Aminomethyl)-12-((R)-sec-butyl)-18,18-difluoro-19-hexyl-6-((S)-1-hydroxyethyl)-15-isobutyl-16-methyl-1-oxa-4,7,10,13,16-pentaazacyclononadecane-2,5,8,11,14,17-hexaone]",6.3
12,"CC(C)C[C@H]1C(=O)N[C@@H](C2CCCCC2)C(=O)N[C@@H](CN)C(=O)N[C@@H]([C@H](C)O)C(=O)NCC(=O)O[C@H](CC2CC3CCC2C3)[C@@H](C)C(=O)N1C (stereo partly drawn) [Example 62, (6S,9S,12S,15S,18R,19R)-9-(Aminomethyl)-19-(((exo)-bicyclo[2.2.1]heptan-2-yl)methyl)-12-cyclohexyl-6-((S)-1-hydroxyethyl)-15-isobutyl-16,18-dimethyl-1-oxa-4,7,10,13,16-pentaazacyclononadecane-2,5,8,11,14,17-hexaone]",1.6
13,"CC(C)C[C@H]1C(=O)N[C@@H](C2CCCCC2)C(=O)N[C@@H](CN)C(=O)N[C@@H]([C@H](C)O)C(=O)NCC(=O)O[C@H](CCC(C)(C)C)[C@@H](C)C(=O)N1C [Example 63, (6S,9S,12S,15S,18R,19R)-9-(aminomethyl)-12-cyclohexyl-19-(3,3-dimethylbutyl)-6-((S)-1-hydroxyethyl)-15-isobutyl-16,18-dimethyl-1-oxa-4,7,10,13,16-pentaazacyclononadecane-2,5,8,11,14,17-hexaone]",4.4
14,"COC(C)(C)CCCCCC[C@H]1OC(=O)CNC(=O)[C@H]([C@H](C)O)NC(=O)[C@H](CN)NC(=O)[C@H](C2CCCCC2)NC(=O)[C@H](CC(C)C)N(C)C(=O)[C@@H]1C [Example 64, (6S,9S,12S,15S,18R,19R)-9-(Aminomethyl)-12-cyclohexyl-6-((S)-1-hydroxyethyl)-15-isobutyl-19-(7-methoxy-7-methyloctyl)-16,18-dimethyl-1-oxa-4,7,10,13,16-pentaazacyclononadecane-2,5,8,11,14,17-hexaone]",2.2
15,"CC(C)CCCCCC[C@H]1OC(=O)CNC(=O)[C@H]([C@H](C)O)NC(=O)[C@H](CN)NC(=O)[C@H](C2CCCCC2)NC(=O)[C@H](CC(C)C)N(C)C(=O)[C@@H]1C [Example 65, (6S,9S,12S,15S,18R,19R)-9-(Aminomethyl)-12-cyclohexyl-6-((S)-1-hydroxyethyl)-15-isobutyl-16,18-dimethyl-19-(7-methyloctyl)-1-oxa-4,7,10,13,16-pentaazacyclononadecane-2,5,8,11,14,17-hexaone]",0.78
16,"CCCC[C@H]1OC(=O)CNC(=O)[C@H]([C@H](C)O)NC(=O)[C@H](CN)NC(=O)[C@H](C2CCCCC2)NC(=O)[C@H](CC(C)C)N(C)C(=O)[C@@H]1CCCC [Example 66, (6S,9S,12S,15S,18R,19R)-9-(Aminomethyl)-18,19-dibutyl-12-cyclohexyl-6-((S)-1-hydroxyethyl)-15-isobutyl-16-methyl-1-oxa-4,7,10,13,16-pentaazacyclononadecane-2,5,8,11,14,17-hexaone]",1.3
17,"CCCCCC[C@H]1OC[C@@H](C)NC(=O)[C@H](COC[C@@H](O)CO)NC(=O)[C@H](CN)NC(=O)[C@H](C2CCCCC2)NC(=O)[C@H](CC(C)C)N(C)C(=O)[C@@H]1C [Example 67, (3R,6S,9S,12S,15S,18R,19R)-9-(Aminomethyl)-12-cyclohexyl-6-(((S)-2,3-dihydroxypropoxy)methyl)-19-hexyl-15-isobutyl-3,16,18-trimethyl-1-oxa-4,7,10,13,16-pentaazacyclononadecane-5,8,11,14,17-pentaone] (cyclo([Chg][Dap]S(X11)[X2][NMeL]))",8.8
18,"CCCCCC[C@H]1OC(=O)CNC(=O)[C@H]([C@H](C)O)NC(=O)[C@H](CN)NC(=O)[C@H](C2CCCCC2)NC(=O)[C@H](CC(C)C)N(C)C(=O)[C@@H]1CC(F)(F)F [Example 68, (6S,9S,12S,15S,18R,19R)-9-(Aminomethyl)-12-cyclohexyl-19-hexyl-6-((S)-1-hydroxyethyl)-15-isobutyl-16-methyl-18-(2,2,2-trifluoroethyl)-1-oxa-4,7,10,13,16-pentaazacyclononadecane-2,5,8,11,14,17-hexaone]",3.1
19,"CCCCCC[C@H]1OC[C@@H](C)NC(=O)[C@H]([C@H](C)OCCCN)NC(=O)[C@H](CN)NC(=O)[C@H](C2CCCCC2)NC(=O)[C@H](CC(C)C)N(C)C(=O)[C@@H]1C [Example 70, (3R,6S,9S,12S,15S,18R,19R)-9-(Aminomethyl)-6-((S)-1-(3-aminopropoxy)ethyl)-12-cyclohexyl-19-hexyl-15-isobutyl-3,16,18-trimethyl-1-oxa-4,7,10,13,16-pentaazacyclononadecane-5,8,11,14,17-pentaone] (cyclo([Chg][Dap][aThr](Propyl(3-NH2))[X2][NMeL]))",15
